Experimental data as given in the CombiSolv-Exp solvation set (Vermeire and Green 2021).

Experiment: solvent given as SMILES

Structure (SMILES): NC(=O)c1ccccc1O
- solvation free energy, 298 K (in C1CCOC1): -13.2 kcal/mol
- solvation free energy, 298 K (in C1COCCO1): -13 kcal/mol
- solvation free energy, 298 K (in CC(C)(C)O): -12.1 kcal/mol
- solvation free energy, 298 K (in CC(C)=O): -13 kcal/mol
- solvation free energy, 298 K (in CC(C)CCO): -11.9 kcal/mol
- solvation free energy, 298 K (in CC(C)CO): -11.9 kcal/mol
- solvation free energy, 298 K (in CC(C)O): -12.2 kcal/mol
- solvation free energy, 298 K (in CC(C)OCCO): -12.8 kcal/mol
- solvation free energy, 298 K (in CC(O)COC(C)(C)C): -12.6 kcal/mol
- solvation free energy, 298 K (in CCC(C)O): -12.2 kcal/mol
- solvation free energy, 298 K (in CCCC(C)O): -12.1 kcal/mol
- solvation free energy, 298 K (in CCCCCCCCCCO): -11.6 kcal/mol
- solvation free energy, 298 K (in CCCCCCCCO): -11.7 kcal/mol
- solvation free energy, 298 K (in CCCCCCCO): -11.8 kcal/mol
- solvation free energy, 298 K (in CCCCCCO): -12 kcal/mol
- solvation free energy, 298 K (in CCCCCO): -12 kcal/mol
- solvation free energy, 298 K (in CCCCO): -12.1 kcal/mol
- solvation free energy, 298 K (in CCCCOC(C)=O): -12.3 kcal/mol
- solvation free energy, 298 K (in CCCCOCCCC): -10.5 kcal/mol
- solvation free energy, 298 K (in CCCCOCCO): -12.6 kcal/mol
- solvation free energy, 298 K (in CCCO): -12.3 kcal/mol
- solvation free energy, 298 K (in CCCOC(C)=O): -12.4 kcal/mol
- solvation free energy, 298 K (in CCCOCCO): -12.8 kcal/mol
- solvation free energy, 298 K (in CCO): -12.5 kcal/mol
- solvation free energy, 298 K (in CCOC(C)=O): -12.6 kcal/mol
- solvation free energy, 298 K (in CCOCCO): -13 kcal/mol
- solvation free energy, 298 K (in CO): -12.7 kcal/mol
- solvation free energy, 298 K (in COC(C)=O): -12.8 kcal/mol
- solvation free energy, 298 K (in COC(C)CCO): -12.7 kcal/mol
- solvation free energy, 298 K (in Fc1ccccc1): -10.6 kcal/mol
- solvation free energy, 298 K (in O): -10.4 kcal/mol

Structure (SMILES): O=C(c1ccc(Br)cc1)N(O)c1ccc(Cl)cc1
- solvation free energy, 298 K (in O): -11.6 kcal/mol

Structure (SMILES): CCc1cccnc1
- solvation free energy, 298 K (in O): -4.59 kcal/mol

Structure (SMILES): Nc1ccc(S(=O)(=O)NC(=O)c2ccccc2)cc1
- solvation free energy, 298 K (in O): -18.1 kcal/mol

Structure (SMILES): CC1(C)CCCC2(C)C3CC4C(C31)C42C (stereo unspecified)
- solvation free energy, 298 K (in O): 1.12 kcal/mol

Structure (SMILES): Oc1cccc2cccnc12
- solvation free energy, 298 K (in O): -6.06 kcal/mol

Structure (SMILES): FC(Cl)C(F)(F)F (stereo unspecified)
- solvation free energy, 298 K (in CCCCCCCCO): -1.67 kcal/mol
- solvation free energy, 298 K (in CN1CCCC1=O): -2.39 kcal/mol
- solvation free energy, 298 K (in CN(C)C=O): -2.44 kcal/mol
- solvation free energy, 298 K (in O): 0.79 kcal/mol

Structure (SMILES): CCCCO[N+](=O)[O-]
- solvation free energy, 298 K (in O): -2.09 kcal/mol

Structure (SMILES): CCCCSP(=O)(O)SCCCC
- solvation free energy, 298 K (in O): -8.03 kcal/mol

Structure (SMILES): O=C(O)c1ccc(Cl)c([N+](=O)[O-])c1
- solvation free energy, 298 K (in C1CCOC1): -14.2 kcal/mol
- solvation free energy, 298 K (in C1COCCO1): -14.2 kcal/mol
- solvation free energy, 298 K (in CC(C)(C)O): -13.3 kcal/mol
- solvation free energy, 298 K (in CC(C)CCO): -13.1 kcal/mol
- solvation free energy, 298 K (in CC(C)CO): -12.9 kcal/mol
- solvation free energy, 298 K (in CC(C)O): -13.4 kcal/mol
- solvation free energy, 298 K (in CCC(C)O): -13.2 kcal/mol
- solvation free energy, 298 K (in CCCC(=O)OC): -13 kcal/mol
- solvation free energy, 298 K (in CCCC(C)O): -13.2 kcal/mol
- solvation free energy, 298 K (in CCCCCCCCCCO): -12.9 kcal/mol
- solvation free energy, 298 K (in CCCCCCCCO): -13.1 kcal/mol
- solvation free energy, 298 K (in CCCCCCCO): -13.1 kcal/mol
- solvation free energy, 298 K (in CCCCCCO): -13.1 kcal/mol
- solvation free energy, 298 K (in CCCCCO): -13.2 kcal/mol
- solvation free energy, 298 K (in CCCCO): -13.2 kcal/mol
- solvation free energy, 298 K (in CCCCOC(C)=O): -13.1 kcal/mol
- solvation free energy, 298 K (in CCCO): -13.3 kcal/mol
- solvation free energy, 298 K (in CCCOC(C)=O): -12.8 kcal/mol
- solvation free energy, 298 K (in CCO): -13.5 kcal/mol
- solvation free energy, 298 K (in CCOC(C)=O): -13.3 kcal/mol
- solvation free energy, 298 K (in CCOCC): -13.1 kcal/mol
- solvation free energy, 298 K (in CN(C)C=O): -14.1 kcal/mol
- solvation free energy, 298 K (in COC(C)=O): -13.4 kcal/mol
- solvation free energy, 298 K (in O): -9.84 kcal/mol

Structure (SMILES): CCCCCCCCCCCCCCCC
- solvation free energy, 298 K (in CCO): -8.9 kcal/mol
- solvation free energy, 298 K (in ClC(Cl)(Cl)Cl): -11.4 kcal/mol
- solvation free energy, 298 K (in ClCCCl): -9.66 kcal/mol
- solvation free energy, 298 K (in O=Cc1ccco1): -7.93 kcal/mol
- solvation free energy, 298 K (in OCCOCCO): -5.77 kcal/mol

Structure (SMILES): CCCCCOC(=O)c1ccccc1C(=O)OCCCCC
- solvation free energy, 298 K (in O): -6.96 kcal/mol

Structure (SMILES): FC(F)(F)CCl
- solvation free energy, 298 K (in CCCCCCCC(=O)OCC(COC(=O)CCCCCCC)OC(=O)CCCCCCC): -2.41 kcal/mol
- solvation free energy, 298 K (in O): 0.06 kcal/mol

Structure (SMILES): C=C(CCC=C(C)C)C1CC=C(C)CC1 (stereo unspecified)
- solvation free energy, 298 K (in O): -0.5 kcal/mol

Structure (SMILES): ClCC(Cl)Cl
- solvation free energy, 298 K (in CCCCCCCCO): -4.63 kcal/mol
- solvation free energy, 298 K (in ClC(Cl)(Cl)Cl): -5.06 kcal/mol
- solvation free energy, 298 K (in ClC(Cl)Cl): -5.28 kcal/mol
- solvation free energy, 298 K (in ClCCCl): -5.47 kcal/mol
- solvation free energy, 298 K (in O): -1.99 kcal/mol

Structure (SMILES): O=[N+]([O-])c1cc[n+]([O-])cc1
- solvation free energy, 298 K (in CC(C)CC(C)(C)C): -7.06 kcal/mol
- solvation free energy, 298 K (in CCCCCC): -7.08 kcal/mol
- solvation free energy, 298 K (in CCCCCCC): -7.12 kcal/mol
- solvation free energy, 298 K (in CCCCCCCC): -7.13 kcal/mol
- solvation free energy, 298 K (in CCCCCCCCCC): -7.16 kcal/mol

Structure (SMILES): Clc1cc(Cl)c(Cl)cc1Cl
- solvation free energy, 298 K (in CCCCCCCCO): -7.67 kcal/mol
- solvation free energy, 298 K (in O): -1.34 kcal/mol

Structure (SMILES): CC=CC=O
- solvation free energy, 298 K (in O=CN1CCOCC1): -4.69 kcal/mol

Structure (SMILES): CCC(C)CC
- solvation free energy, 298 K (in C=CCCCCCCCCCCCCCC): -3.42 kcal/mol
- solvation free energy, 298 K (in CC#N): -2.58 kcal/mol
- solvation free energy, 298 K (in CCCCCCCCCCCCCCCC): -3.55 kcal/mol
- solvation free energy, 298 K (in CCCCCO): -3.33 kcal/mol
- solvation free energy, 298 K (in CCCCO): -3.19 kcal/mol
- solvation free energy, 298 K (in O): 2.47 kcal/mol

Structure (SMILES): CC(=O)c1ccncc1
- solvation free energy, 298 K (in O): -7.62 kcal/mol

Structure (SMILES): O=C(c1ccccc1)N(O)c1ccccc1
- solvation free energy, 298 K (in O): -11.3 kcal/mol

Structure (SMILES): CN(CC(F)(F)F)c1ccccc1
- solvation free energy, 298 K (in O): -1.92 kcal/mol

Structure (SMILES): OCCc1ccccc1
- solvation free energy, 298 K (in O): -6.79 kcal/mol

Structure (SMILES): CCCCCCCCC=CCCCCCCCC(=O)OCC
- solvation free energy, 298 K (in O): -8.25 kcal/mol

Structure (SMILES): O=C(O)Cc1ccccc1
- solvation free energy, 298 K (in C=CCCCCCCC=C): -7.39 kcal/mol
- solvation free energy, 298 K (in CCOC(C)=O): -11.1 kcal/mol
- solvation free energy, 298 K (in O): -8.74 kcal/mol

Structure (SMILES): Clc1ccc(Cl)c(Cl)c1Cl
- solvation free energy, 298 K (in CCCCCCCCC=CCCCCCCCC(=O)OCC(COC(=O)CCCCCCCC=CCCCCCCCC)OC(=O)CCCCCCCC=CCCCCCCCC): -7.82 kcal/mol
- solvation free energy, 298 K (in CCCCCCCCO): -7.69 kcal/mol
- solvation free energy, 298 K (in O): -1.34 kcal/mol

Structure (SMILES): CCCCN(CC)C(=O)SCCC
- solvation free energy, 298 K (in O): -3.64 kcal/mol

Structure (SMILES): Clc1ccccn1
- solvation free energy, 298 K (in O): -4.39 kcal/mol

Structure (SMILES): Oc1ccc(Cl)cc1
- solvation free energy, 298 K (in CC(C)CC(C)(C)C): -6.6 kcal/mol
- solvation free energy, 298 K (in CCCCCC): -6.91 kcal/mol
- solvation free energy, 298 K (in CCCCCCC): -6.89 kcal/mol
- solvation free energy, 298 K (in CCCCCCCC): -6.88 kcal/mol
- solvation free energy, 298 K (in CCCCCCCCCC): -6.89 kcal/mol
- solvation free energy, 298 K (in Cc1ccc(C)cc1): -8.29 kcal/mol
- solvation free energy, 298 K (in Cc1cccc(C)c1): -8.39 kcal/mol
- solvation free energy, 298 K (in Cc1ccccc1C): -8.48 kcal/mol
- solvation free energy, 298 K (in O): -7.04 kcal/mol
